What was measured:
[1] = tested on: withdrawal reflex of the rat tail (tail flick) in response to a radiant heat beam; experiment: Low-intensity tail flick test (rat); assay type: in vivo; conditions: po, peroral, read-out: Low intensity tail flick, rat, peroral, MPE (dose)
Method: Method II. Low-Intensity Tail Flick Test (Rat)
In the low-intensity tail flick test, the determination of the antinociceptive effect of the compounds according to the invention towards an acute noxious thermal stimulus is carried out by measuring the withdrawal reflex of the rat tail (tail flick) in response to a radiant heat beam (analgesia meter; model 2011 of the company Rhema Labortechnik, Hofheim, Germany) according to the method described by D'Amour and Smith (J. Pharm. Exp. Ther. 72, 74 79 (1941). To this end, the rats were placed in a plexiglas restrainer, and a low-intensity radiant heat beam (48° C.) was focused onto the dorsal surface of the tail root. The stimulus intensity was adjusted to result in a mean pre-drug control withdrawal latency of about 7 s, thus also allowing a supraspinal modulation of the spinally mediated acute nociceptive reflex. A cutoff time of 30 s was applied to avoid tissue damage. Male Sprague-Dawley rats (Janvier, Le Genest St. Isle, Frankreich) with weights of 200-250 g were used. 10 rats were used per group. Before administration of a compound according to the invention, the animals were pre-tested twice in the course of five minutes and the mean of these measurements was calculated as the pre-test mean. The antinociceptive effect was determined at 20, 40 and 60 min after peroral compound administration. The antinociceptive effect was calculated based on the increase in the tail withdrawal latency according to the following formula and is expressed as percentage of the maximum possible effect (MPE [%]): MPE=[(T1−T0)/(T2−T0)]*100
In this, T0 is the control latency time before and T1 the latency time after administration of the compound, T2 is the cutoff time and MPE is the maximum possible effect. Employing variant analysis (repeated measures ANOVA) allowed testing of statistically significant differences between the compounds according to the invention and the vehicle group. The significance level was set to p≦0.05. To determine the dose dependency, the particular compound according to the invention was administered in 3-5 logarithmically increasing doses, including a threshold dose and a maximum effective dose, and the ED50 values were determined with the aid of regression analysis. The ED50 calculation was performed at the time of maximum efficacy (usually 20 min after administration of the compounds).

KCNQ2/3 channels = target: T1, KCNQ2/3 channels (Homo sapiens, UniProt O43525+O43526); experiment: Fluorescence assay using a voltage sensitive dye (fluorimetry); assay type: cell-based; conditions: CHO-K1 cells expressing KCNQ2/3 channels; for Emax: relative to retigabine = 100%, read-out: Fluorimetry % efficacy (retigabine = 100%)
T1 construct: expressed in transfected cells; host or cells: CHO-K1
Method: Method I. Fluorescence Assay Using a Voltage Sensitive Dye (Fluorimetry)
[…] CHO-K1 cells expressing KCNQ2/3 channels are cultivated adherently at 37° C., 5% CO2 and 95% humidity in cell culture bottles (e.g. 80 cm^2 TC flasks, Nunc) with DMEM-high glucose (Sigma Aldrich, D7777) including 10% FCS (PAN Biotech, e.g. 3302-P270521) or alternatively MEM Alpha Medium (1×, liquid, Invitrogen, #22571), 10% fetal calf serum (FCS) (Invitrogen, #10270-106, heat-inactivated) and the necessary selection antibiotics.
Before being sown out for the measurements, the cells are washed with 1×DPBS buffer Ca^2+/Mg^2+-free (e.g. Invitrogen, #14190-094) and detached from the bottom of the culture vessel by using Accutase (PAA Laboratories, #L11-007) (incubation with Accutase for 15 min at 37° C.). The cell number is determined using a CASY™ cell counter (TCC, Schärfe System). Depending on the optimal density for each individual cell line, 20,000-30,000 cells/well/100 μl are seeded onto 96-well Corning™ CellBIND™ assay plates (Flat Clear Bottom Black Polystyrene Microplates, #3340). Freshly seeded cells are then left to settle for one hour at room temperature, followed by incubation for 24 hours at 37° C., 5% CO2 and 95% humidity.
The voltage-sensitive fluorescent dye from the Membrane Potential Assay Kit (Red™ Bulk format part R8123 for FLIPR, MDS Analytical Technologies™) is prepared by dissolving the contents of one vessel Membrane Potential Assay Kit Red Component A in 200 ml of extracellular buffer (ES buffer, 120 mM NaCl, 1 mM KCl, 10 mM HEPES, 2 mM CaCl2, 2 mM MgCl2, 10 mM glucose; pH 7.4). After removal of the nutrient medium, the cells are washed once with 200 μl of ES buffer, then loaded for 45 min at room temperature in 100 μl of dye solution in the dark.
Fluorescence measurements are carried out in a BMG Labtech FLUOstar™, BMG Labtech NOVOstar™ or BMG Labtech POLARstar™ instrument (525 nm excitation, 560 nm emission, Bottom Read mode). After incubation with the dye, 50 μl of the test substances in the desired concentrations, or 50 μl of ES buffer for control purposes, are applied to the wells of the assay plate and incubated for 30 min at room temperature while being shielded from light. The fluorescence intensity of the dye is then measured for 5 min and the fluorescence value F1 of each well is thus determined at a given, constant time. 15 μl of a KCl solution are then added to each well (final concentration of potassium ions 92 mM). The change in fluorescence intensity is subsequently monitored until all the relevant values have been obtained (mainly 5-30 min). At a given time post KCl application, a fluorescence value F2 is determined, in this case at the time of the fluorescence peak.
For calculation, the fluorescence intensity F2 is corrected for the fluorescence intensity F1, and the activity (ΔF/F) of the target compound on the potassium channel is determined as follows:
In order to determine whether a substance has agonistic activity,
[formula] can be related to
[formula] of control wells.
[formula] is determined by adding to the well only the buffer solution instead of the test substance, determining the value F1K of the fluorescence intensity, adding the potassium ions as described above, and measuring a value F2K of the fluorescence intensity. F2K and F1K are then calculated as follows: […]
A substance has an agonistic activity on the potassium channel if
[formula] is greater than
Independently of the comparison of
[formula] it is possible to conclude that a target compound has agonistic activity if
[formula] increases dose dependently.
Calculations of EC50 and IC50 values are carried out with the aid of ‘Prism v4.0’ software (Graph Pad Software™).

Structure (SMILES)	inhibition in vivo at 4.64 mg/kg [1]	EC50 (KCNQ2/3 channels)	Emax (KCNQ2/3 channels)	inhibition in vivo at 10 mg/kg [1]
CCOc1nc2cc(C(F)(F)F)ccc2c(C)c1C(=O)NCc1cccc(F)c1 [Example 6, 2-ethoxy-N-[(3-fluorophenyl)-methyl]-4-methyl-7-(trifluoromethyl)-quinoline-3-carboxylic acid amide]	67%	58 nM	132%	
CCOc1nc2cc(C(F)(F)F)ccc2c(OC)c1C(=O)NCc1cccc(F)c1 [Example 12, 2-ethoxy-N-[(3-fluorophenyl)-methyl]-4-methoxy-7-(trifluoremethyl)-quinoline-3-carboxylic acid amide]	27%	104 nM	170%	
CCOc1nc2cc(C(F)(F)F)ccc2c(C)c1C(=O)NCc1cccc(C)c1 [Example 22, 2-ethoxy-4-methyl-N-(m-tolyl-methyl)-7-(trifluoromethyl)-quinoline-3-carboxylic acid amide]		58 nM	111%	20%
COCCOc1nc2cc(C(F)(F)F)ccc2c(C)c1C(=O)NCc1ccc(F)cc1 [Example 8, N-[(4-fluorophenyl)-methyl]-2-(2-methoxy-ethoxy)-4-methyl-7-(trifluoromethyl)-quinoline-3-carboxylic acid amide]		143 nM	94%	22%
